The text below walks through data of US5602184A, “Monoterpenes, sesquiterpenes and diterpenes as cancer therapy” (priority 1993, dated 1997).

The subject of series [1] is PC3 human prostate carcinoma. The experiment in a line: In vitro antitumor activity of terpenes against PC3 (seven day exposure). The format is cell-based. The following applies: for activity compared with farnesol (standard): FIGS. 7-9, relative to farnesol; for activity against the human prostate cancer cells: FIGS. 1-6, growth as % of untreated control; for IC50: Homo sapiens, 168 h, PC3, seven day exposure. Here is the method:
A human prostate carcinoma cell line, PC3, was obtained from the American Tissue Culture Collection, Accession No. CRL 1435. The PC3 cells were cultured in RPMI 1640 medium enriched with 10% fetal calf serum (FCS). The medium and the FCS are both available from GIBCO BRL Life Technologies, Inc., 8400 Helgeman Lane, Gaithersburg, Md. 20877.
Terpenes were exposed to the PC3 cells as follows. On day 0, seed PC3 cells at about 1,000 cells per well were placed in each well of a 96-well tissue culture plate along with […] (ml) of culture medium. On day 1, various concentrations of each of the selected terpenes were added. A serial dilution of each terpene was made in dimethyl sulfoxide (DMSO). All of the initial concentrations were about 200 times the desired concentration. Each dose was further diluted 100 times with culture medium. 0.1 ml of each dose was added per well to the tissue culture plate. The plates were incubated at 37° Celsius (C) under 5% carbon dioxide (CO2) for seven days. The results are depicted graphically in FIGS. 1-9 and some of the concentrations which inhibited cell growth to about 50% of the control growth (IC50) are shown in Table 1.

A further series concerns U87 glioblastoma. The experiment in a line: Effect of limonene on tumor cell proliferation, U87. Format: cell-based. The following applies: Homo sapiens, 96 h; RPMI 1640; three to four days of continuous treatment. The method, then:
(§1) Limonene (Sigma) was evaluated for its effect on proliferation of various tumor cell lines. The cell lines included U87 and A172 (both are glioblastomas), HOS (a low ras osteosarcoma), AD5 (a high ras osteosarcoma), and HT29 (a high ras colon carcinoma). An activated or high ras means that the ras oncogene has mutated to a form which can transform normal cells to malignant cells. The glioblastoma cells were grown in RPMI 1640 culture medium and the other three cell lines were grown in Dulbecco's Modified Eagle's Medium (DMEM, available from GIBCO).
(§2) Limonene was added to the growth medium, which was supplemented with 10% FCS, and incubated at 37° C. for 24 hours. The medium was added to human tumor cells plated the previous day in 60 millimeter (mm) tissue culture (TC) dishes. After three to four days of continuous treatment, the cells were detached by trypsinization and counted using a hemocytometer (Hy-Lite Counting Chamber from Fisher Scientific, 711 Forbes Ave., Pittsburgh, Pa. 15219-4785). Cell viability was determined by a trypin blue exclusion method as described in detail in the manufacturer's instructions.

Series [2] deals with HOS osteosarcoma (low ras). The experiment in a line: Effect of limonene on tumor cell proliferation, HOS. The format is cell-based. The settings on record: Homo sapiens, 96 h; DMEM; three to four days of continuous treatment. The method, then:
as §1, §2

Series [3] has as its system tumor cell lines U87, A172, HOS, AD5, HT29. The experiment in a line: Cell viability of surviving cells in the proliferation test (exclusion method). The format is cell-based, human. The following applies: of the approximately 50% of cells which survived (at IC50). The method, then:
as §2

In another series the test system is A172 glioblastoma. The experiment in a line: Effect of limonene on tumor cell proliferation, A172. The format is cell-based. The settings on record: Homo sapiens, A 172, 96 h; RPMI 1640; three to four days of continuous treatment. Here is the method: as §1, §2
Series [4] concerns HT29 colon carcinoma (high ras). The experiment in a line: Effect of limonene on tumor cell proliferation, HT29. Format: cell-based. The following applies: Homo sapiens, HT-29, 96 h; DMEM; three to four days of continuous treatment. The method, then: as §1, §2
The conditions of series [5]: to compounds having terminal hydroxy groups; cited from earlier work.
Series [6] in a line: Tolerability and body weight of nude mice treated with limonene. The format is in vivo. Here is the method:
(§3) Nude mice were obtained from Cancer Research Facility in Frederick, Md. The strain name is Athymic MCR-nude. PC3 cells were transplanted into both the right and left flanks of nude mice and allowed to grow until the tumor size reached the volume of approximately 200-300 cubic mm (mm^3). At this time, five mice bearing ten tumors total were allocated to each group.
(§4) The drug or vehicle alone were administered by gavage once daily Monday through Friday for two weeks. The control group received olive oil at a dose of 0.1 cubic centimeters (cc) per ten grams (gm) of body weight. […] Both body weight and tumor volume were measured daily.

For a further series, the system named is prostate tumor cells. The experiment in a line: Apoptosis and nuclear fragmentation (DNA ladder gel). Format: cell-based. The following applies: for DNA ladder indicative of apoptosis: 2% agarose minigel. Here is the method: The invention examined the effect on prostate tumor cells of treatment with limonene, farnesol and phytol. […] The classic signature of apoptosis is the cleavage of nuclear DNA into nucleosomal subunits. On gels, this gives rise to the appearance of a ladder as nucleosomal units are sequentially cleaved from the DNA.
After drug exposure, cells were lysed and the high molecular DNA removed by centrifugation. The aqueous phase was treated with proteinase K to digest proteins. After a phenol/chloroform extraction, the DNA was precipitated with salt and ethanol. The pellet was dissolved in deionized water and treated with 500 μg/ml RNase A. The DNA was run on a 2% agarose minigel.

In series [7] the test system is PC3 human prostate carcinoma. The experiment in a line: In vivo antitumor activity of d-limonene against PC3 in nude mice. Details: species or system nude mice (human PC3 tumor). The settings on record: gavage once daily Monday through Friday for two weeks. The method, then:
as §3, §4

For series [8], the system named is AD5 human osteosarcoma cell line. The experiment in a line: Effect of limonene on radiation sensitivity of tumor cells. Format: cell-based. The settings on record: 3 mM limonene; FIG. 10. Here is the method: An activated ras oncogene makes tumor cells resistant to radiation therapy. The AD5 human osteosarcoma cell line is an example of such a cell line resistant to radiation by virtue of an activated ras oncogene. AD5 cells were cultivated as described in Example 2. Limonene was prepared in various concentrations also as described in Example 2. […] This dose refers to the dose that reduces the number of surviving cells to about 37% of the control cells. Gy (gray) is an international metric unit for an absorbed dose of radiation. One Gy equals one Joule/kg.

The test system of series [9] is AD5 osteosarcoma (high ras). The experiment in a line: Effect of limonene on tumor cell proliferation, AD5. Format: cell-based. The settings on record: Homo sapiens, 96 h; DMEM; three to four days of continuous treatment. Here is the method: as §1, §2
Details of series [10]: species or system nude mice. The following applies: mouse, in vivo. The method, then: as §3
(§5) The drug or vehicle alone were administered by gavage once daily Monday through Friday for two weeks. The control group received olive oil at a dose of 0.1 cubic centimeters (cc) per ten grams (gm) of body weight. Other groups received the same volume of olive oil with limonene added to give a daily dose of limonene of 0.1, 1.0 or 2.0 […]. Both body weight and tumor volume were measured daily.
(§6) The experimental procedure of Example 5 was followed except that phytol was used in place of limonene. […] The results are depicted in FIG. 13 which plots the percent change of tumor volume versus the number of days after inoculation of the nude mice with […] tumor cells.

The subject of series [11] is PC3 human prostate carcinoma. The experiment in a line: In vivo antitumor activity of phytol against PC3 in nude mice. Details: species or system nude mice (human PC3 tumor). The method, then:
as §3, §5, §6

Several values for one entry are separate records, joined by “and”; a condition that tells them apart may be missing. Equal entries are not always repeated. Entries after “also recorded” stand apart in the source; their conditions may differ. Where two headings read alike, the source gives them in different places. A value given as a limit tells only on which side of the number the result lay.

Broadly, the IC50 is the midpoint of a concentration-inhibition curve. A lower IC50 goes with inhibition by little substance. Usually cell viability stands for the share of living cells, or the viability signal relative to a control. A high value points to better survival.

As for `CC(C)=CCC/C(C)=C\CO` [nerol], the “activity compared with farnesol (standard)” value in [1] was “less active”.
On the same count and under the same terms, then `CC(C)c1ccc(C=O)cc1` [4-isopropylbenzaldehyde], with “less active”.
In the case of `CC(C)=CCC/C(C)=C/CC/C(C)=C/CC/C(C)=C/CO` [geranylgeraniol], in series [1], the “activity against the human prostate cancer cells” value is recorded as “favorable activity”; the IC50 was 10.5 µM and 3 µg/mL.
For `CC(C)=CCC/C(C)=C/CC/C(C)=C/C(=O)O` [farnesylic acid], in series [1], the “activity against the human prostate cancer cells” value is reported as “favorable activity”.
Consider `C=CC(C)CCCC(C)(C)O` (stereo not drawn) [dihydromyrcenol], for which the “activity compared with farnesol (standard)” value in [1] was “less active”.
Turning to `CC(C)=CCC[C@@H](C)CCO` [d-citronellol], the “activity compared with farnesol (standard)” value in series [1] was “less active”.
For `C=C(C)[C@H]1CC=C(C)CC1` [limonene, d-Limonene], the IC50 with U87 glioblastoma was 2100 ± 400 µM; in series [2], 3000 ± 300 µM; in the series on A172 glioblastoma it was 1500 ± 500 µM; in series [4], 4500 ± 500 µM; in series [1], 217 µM and 30 µg/mL; in series [9], 4800 ± 600 µM. The same compound came in with a cell viability in [3] greater than 95%. In addition, the metabolism in vivo result in series [5] was “rapidly metabolized”. In addition, in [6] (gavage, two weeks, up to 2.0 gm/kg), the tolerability result is “appeared to tolerate the drug well”. In addition, the loss in weight result in series [6] (mouse, in vivo) is recorded as “not a statistically significant loss in weight”. The “mode of cell death” value with prostate tumor cells is given as “apoptosis, not necrosis”. Moreover, the “tumor cell death (not cytostasis)” value in the series with prostate tumor cells is given as “tumor cell death (not cytostasis) was observed”. The “DNA ladder indicative of apoptosis” value in the series on prostate tumor cells is recorded as “a classic DNA ladder indicative of apoptosis has been noted; also recorded: classic DNA ladders”. Moreover, the “rate of tumor growth vs control group” value in series [7] (0.1 gm/kg) is given as “the same”; in [7] (1.0 gm/kg) it was “the same”; in series [7] (2.0 gm/kg), “approximately half of that in the control group”. The “effect on radiation dose response curve” value in series [8] was “alters both the shoulder and the dose (Do) of the radiation dose response curve”.
Consider `C=CC(C)(O)CCC=C(C)CCC=C(C)C` (stereo not drawn) [nerolidol], for which, in [1], the “activity against the human prostate cancer cells” value was “favorable activity”; the IC50 is 90.1 µM and 20 µg/mL.
Take `CC(C)c1ccc(C(=O)O)cc1` [4-isopropylbenzoic acid]: the “activity compared with farnesol (standard)” value in [1] is “less active”.
Regarding `CC(C)c1ccc(CO)cc1` [4-isopropylbenzylalcohol], in series [1], the “activity compared with farnesol (standard)” value is recorded as “less active”.
As for `O=C(O)CCCCCCCCCCCCCCCO` [16-hydroxyhexadecanoic acid], the “activity compared with farnesol (standard)” value in series [1] is reported as “less active”.
Regarding `C=C(C)C1CC=C(C=NO)CC1` (stereo not drawn) [perillartine], the “activity compared with farnesol (standard)” value in [1] is listed as “less active”.
Take `CC(C)=CCCC(C)CC=O` (stereo not drawn) [citronellal]: in series [1], the “activity compared with farnesol (standard)” value is on record as “less active”.
As for `CC(C)=CCCC(C)CC(=O)O` (stereo not drawn) [citronellic acid], the “activity compared with farnesol (standard)” value in [1] is given as “less active”.
With `C/C(=C\CO)CCC[C@H](C)CCC[C@H](C)CCCC(C)C` [phytol], in series [10], the tolerability entry was “tolerated the phytol well”. In addition, the “tumor production during the treatment period” value in series [11] (during the treatment period) is on record as “negligible tumor production”. In [11] (phytol by procedure of Example 5), the “tumor volume as compared to the control animals” value was “lower tumor volume”. Besides, in the series with prostate tumor cells, the “mode of cell death” value was “apoptosis, not necrosis”; the “tumor cell death (not cytostasis)” value is given as “tumor cell death (not cytostasis) was observed”; the “DNA ladder indicative of apoptosis” value is “a classic DNA ladder indicative of apoptosis has been noted”. Moreover, in series [1], the “activity against the human prostate cancer cells” value was “favorable activity”; the IC50 is 34.3 µM and 10 µg/mL.
For the compound `C=CC(=C)CCC=C(C)C` [beta-myrcene], the IC50 in series [1] was 147 µM and 21 µg/mL.
Take `CC(C)=CCC/C(C)=C/CC/C(C)=C/CO` [farnesol, trans, trans-farnesol]: in the series with prostate tumor cells, the “mode of cell death” value is “apoptosis, not necrosis”; the “tumor cell death (not cytostasis)” value was “tumor cell death (not cytostasis) was observed”; the “DNA ladder indicative of apoptosis” value is given as “a classic DNA ladder indicative of apoptosis has been noted; also recorded: classic DNA ladders”. For the same compound, in series [1], the “activity against the human prostate cancer cells” value is recorded as “favorable activity”; the IC50 was 85.6 µM and 19 µg/mL.
For the compound `CC(C)=CCCC(C)=CC=O` [citral], in [1], the “activity against the human prostate cancer cells” value is recorded as “favorable activity”; the IC50 is 17 µM and 3 µg/mL.
